Consider five compounds from patent publication US20260176320A1, “MODULATORS OF G-PROTEIN COUPLED RECEPTORS” (priority 2018, published 2026).

The target of test [1] is T1, GIP-R (Homo sapiens, UniProt P48546).
T1 sequence (P48546 22-466): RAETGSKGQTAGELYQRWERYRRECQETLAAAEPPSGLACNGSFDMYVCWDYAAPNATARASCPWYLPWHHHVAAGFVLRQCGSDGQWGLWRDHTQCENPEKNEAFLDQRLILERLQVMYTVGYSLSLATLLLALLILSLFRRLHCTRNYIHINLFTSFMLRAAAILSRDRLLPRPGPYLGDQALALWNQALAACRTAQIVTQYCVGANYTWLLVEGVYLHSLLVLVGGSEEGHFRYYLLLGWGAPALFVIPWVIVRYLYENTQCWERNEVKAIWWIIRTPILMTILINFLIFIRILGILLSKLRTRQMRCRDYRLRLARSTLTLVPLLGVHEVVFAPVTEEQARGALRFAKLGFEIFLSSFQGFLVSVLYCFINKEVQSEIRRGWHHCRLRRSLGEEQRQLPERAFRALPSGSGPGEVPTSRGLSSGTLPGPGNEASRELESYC
Kind of test: HitHunter cAMP assay (GIP-R). In kind it is cell-based. The settings on record: cAMP; for Emax: read-out: (Emax) GIP-R. In outline: (§1)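 Suspension cells expressing each receptor (10,000 per well) in HBSS with 10 mM HEPES, 625 μM IBMX and 0.2% BSA were treated with a 22-point 2-fold agonist series in duplicate for 30 minutes at room temperature. cAMP was detected by antibody immunocompetition with luminescence read after overnight incubation.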

Test [2] concerns the target GLP-1R (Homo sapiens, UniProt P43220). Kind of test: HitHunter cAMP assay (GLP-1R). In kind it is cell-based. As to conditions: cAMP; for Emax: read-out: (Emax) GLP-1R. In outline: as §1
[3] abbreviates: Table 3, read-out: EC50 GIP-R/nM.
Setting [4] is: Table 3A, read-out: EC50 GIP-R/nM.
Setting [5] is: Table 3, read-out: EC50 GLP-1R/nM.
Where [6] appears, read: Table 3A, read-out: EC50 GLP-1R/nM.

Like-named read-outs stand apart in the source and are kept apart here. Numbered stars: 1 amine (or outer) side, 2 acyl side, 3 side chain; on linkers, the order of the positions; unused ones are H or OH. Square brackets hold non-standard residues; d marks the D form. Side chains are listed from the residue outwards. Peptide text beside a SMILES is read from it. * marks the point of attachment. γGlu = O=C(O)[C@H](CCC(=O)[*:2])N[*:1]; X2 = O=C(CSCC(=O)*)NCCN1C(=O)CSC1=O; Palmitoyl = CCCCCCCCCCCCCCCC(=O)*; Aib = CC(C)(N)C(=O)O

Sequence of GLP-1R (P43220 24-463): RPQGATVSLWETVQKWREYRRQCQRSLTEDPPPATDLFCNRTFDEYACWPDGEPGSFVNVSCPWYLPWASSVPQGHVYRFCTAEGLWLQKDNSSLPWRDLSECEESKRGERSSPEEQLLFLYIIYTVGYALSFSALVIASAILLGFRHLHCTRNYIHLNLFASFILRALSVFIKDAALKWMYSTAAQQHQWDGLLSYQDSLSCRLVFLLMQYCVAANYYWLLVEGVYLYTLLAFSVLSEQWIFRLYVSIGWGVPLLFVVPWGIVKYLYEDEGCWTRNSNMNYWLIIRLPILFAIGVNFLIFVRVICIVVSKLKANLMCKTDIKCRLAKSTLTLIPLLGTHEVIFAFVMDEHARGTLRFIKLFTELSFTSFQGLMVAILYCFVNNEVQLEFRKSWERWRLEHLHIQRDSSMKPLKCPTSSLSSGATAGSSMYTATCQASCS

Consider `CCCCCCCCCCCCCCCC(=O)N[C@@H](CCC(=O)NCCCC[C@H](NC(=O)[C@H](CO)NC(=O)[C@@H]1CCCN1C(=O)[C@@H]1CCCN1C(=O)[C@@H]1CCCN1C(=O)[C@H](C)NC(=O)CNC(=O)[C@H](CO)NC(=O)[C@H](CO)NC(=O)[C@@H]1CCCN1C(=O)CNC(=O)CNC(=O)[C@H](C)NC(=O)[C@H](CC(C)C)NC(=O)[C@H](CC(C)C)NC(=O)[C@H](Cc1c[nH]c2ccccc12)NC(=O)[C@H](CC(N)=O)NC(=O)[C@@H](NC(=O)[C@H](Cc1ccccc1)NC(=O)[C@H](CCC(=O)O)NC(=O)C(C)(C)NC(=O)[C@@H](NC(=O)[C@H](C)NC(=O)[C@H](CCC(N)=O)NC(=O)[C@H](CCCCN)NC(=O)[C@H](CC(=O)O)NC(=O)[C@H](CC(C)C)NC(=O)[C@H](Cc1ccc(O)cc1)NC(=O)[C@@H](NC(=O)[C@H](CO)NC(=O)[C@H](Cc1ccc(O)cc1)NC(=O)[C@H](CC(=O)O)NC(=O)[C@H](CO)NC(=O)[C@@H](NC(=O)[C@H](Cc1ccccc1)NC(=O)[C@@H](NC(=O)CNC(=O)[C@H](CCC(=O)O)NC(=O)CSCC(=O)NCCN1C(=O)CSC1=O)[C@@H](C)O)[C@@H](C)O)[C@@H](C)CC)C(C)C)C(C)C)C(N)=O)C(=O)O` [Compound 80] (X2-EGTFTSDYSIYLDKQAV[Aib]EFVNWLLAGGPSSGAPPPSK([γGlu-Palmitoyl])-NH2), for which the Emax in test [1] (Table 3) came to 73%; in test [1] (Table 3A), 73%; in test [2] (Table 3) it was 92%; in test [2] (Table 3A), 92%. In addition, the EC50 in test [1] (setting [3]) fell in the range of 1 to 10 nM; in test [1] (setting [4]) it was 1 to 10 nM; in test [2] (setting [5]), 0.1 to 1 nM; in test [2] (setting [6]), 0.1 to 1 nM.
Consider `CCCCCCCCCCCCCCCC(=O)N[C@@H](CCC(=O)NCCCC[C@H](NC(=O)[C@H](CO)NC(=O)[C@@H]1CCCN1C(=O)[C@@H]1CCCN1C(=O)[C@@H]1CCCN1C(=O)[C@H](C)NC(=O)CNC(=O)[C@H](CO)NC(=O)[C@H](CO)NC(=O)[C@@H]1CCCN1C(=O)CNC(=O)CNC(=O)[C@H](C)NC(=O)[C@H](CC(C)C)NC(=O)[C@H](CC(C)C)NC(=O)[C@H](Cc1c[nH]c2ccccc12)NC(=O)[C@H](CC(N)=O)NC(=O)[C@@H](NC(=O)[C@H](Cc1ccccc1)NC(=O)[C@H](CCC(=O)O)NC(=O)C(C)(C)NC(=O)[C@H](C)NC(=O)[C@H](C)NC(=O)[C@H](CCC(N)=O)NC(=O)[C@H](CCCCN)NC(=O)[C@H](CC(=O)O)NC(=O)[C@H](CC(C)C)NC(=O)[C@H](Cc1ccc(O)cc1)NC(=O)[C@@H](NC(=O)[C@H](CO)NC(=O)[C@H](Cc1ccc(O)cc1)NC(=O)[C@H](CC(=O)O)NC(=O)[C@H](CO)NC(=O)[C@@H](NC(=O)[C@H](Cc1ccccc1)NC(=O)[C@@H](NC(=O)CNC(=O)[C@H](CCC(=O)O)NC(=O)CSCC(=O)NCCN1C(=O)CC(C)(C)CC1=O)[C@@H](C)O)[C@@H](C)O)[C@@H](C)CC)C(C)C)C(N)=O)C(=O)O` [Compound 82], for which the EC50 lay in the range of 1 to 10 nM in test [1] (EC50 GIP-R/nM, Table 3); 1 to 10 nM in test [1] (EC50 GIP-R/nM, Table 3A); 1 to 10 nM in test [2] (EC50 GLP-1R/nM, Table 3); 1 to 10 nM in test [2] (EC50 GLP-1R/nM, Table 3A). Further, the Emax in test [1] (Table 3) turned out to be 82%; in test [1] (Table 3A), 82%; in test [2] (Table 3) it was 95%; in test [2] (Table 3A), 95%.
Regarding `CCCCCCCCCCCCCCCC(=O)N[C@@H](CCC(=O)NCCCC[C@H](NC(=O)[C@H](CO)NC(=O)[C@@H]1CCCN1C(=O)[C@@H]1CCCN1C(=O)[C@@H]1CCCN1C(=O)[C@H](C)NC(=O)CNC(=O)[C@H](CO)NC(=O)[C@H](CO)NC(=O)[C@@H]1CCCN1C(=O)CNC(=O)CNC(=O)[C@H](C)NC(=O)[C@H](CC(C)C)NC(=O)[C@H](CC(C)C)NC(=O)[C@H](Cc1c[nH]c2ccccc12)NC(=O)[C@H](CC(N)=O)NC(=O)[C@@H](NC(=O)[C@H](Cc1ccccc1)NC(=O)[C@H](CCC(=O)O)NC(=O)C(C)(C)NC(=O)[C@H](C)NC(=O)[C@H](C)NC(=O)[C@H](CCC(N)=O)NC(=O)[C@H](CCCCN)NC(=O)[C@H](CC(=O)O)NC(=O)[C@H](CC(C)C)NC(=O)[C@H](Cc1ccc(O)cc1)NC(=O)[C@@H](NC(=O)[C@H](CO)NC(=O)[C@H](Cc1ccc(O)cc1)NC(=O)[C@H](CC(=O)O)NC(=O)[C@H](CO)NC(=O)[C@@H](NC(=O)[C@H](Cc1ccccc1)NC(=O)[C@@H](NC(=O)CNC(=O)[C@H](CCC(=O)O)NC(=O)CSCC(=O)NCCN1C(=O)CNC1=O)[C@@H](C)O)[C@@H](C)O)[C@@H](C)CC)C(C)C)C(N)=O)C(=O)O` [Compound 84], the maximal effect (Emax) in test [1] (Table 3) amounted to 53%; in test [1] (Table 3A), 53%; in test [2] (Table 3) it was 107%; in test [2] (Table 3A), 107%. In addition, the EC50 in test [1] (setting [3]) lay in the range of 1 to 10 nM; in test [1] (setting [4]) it was 1 to 10 nM; in test [2] (setting [5]), 0.1 to 1 nM; in test [2] (setting [6]), 0.1 to 1 nM.
As to `CCCCCCCCCCCCCCCC(=O)N[C@@H](CCC(=O)NCCCC[C@H](NC(=O)[C@H](CO)NC(=O)[C@@H]1CCCN1C(=O)[C@@H]1CCCN1C(=O)[C@@H]1CCCN1C(=O)[C@H](C)NC(=O)CNC(=O)[C@H](CO)NC(=O)[C@H](CO)NC(=O)[C@@H]1CCCN1C(=O)CNC(=O)CNC(=O)[C@H](C)NC(=O)[C@H](CC(C)C)NC(=O)[C@H](CC(C)C)NC(=O)[C@H](Cc1c[nH]c2ccccc12)NC(=O)[C@H](CC(N)=O)NC(=O)[C@@H](NC(=O)[C@H](Cc1ccccc1)NC(=O)[C@H](CCC(=O)O)NC(=O)C(C)(C)NC(=O)[C@H](C)NC(=O)[C@H](C)NC(=O)[C@H](CCC(N)=O)NC(=O)[C@H](CCCCN)NC(=O)[C@H](CC(=O)O)NC(=O)[C@H](CC(C)C)NC(=O)[C@H](Cc1ccc(O)cc1)NC(=O)[C@@H](NC(=O)[C@H](CO)NC(=O)[C@H](Cc1ccc(O)cc1)NC(=O)[C@H](CC(=O)O)NC(=O)[C@H](CO)NC(=O)[C@@H](NC(=O)[C@H](Cc1ccccc1)NC(=O)[C@@H](NC(=O)CNC(=O)[C@H](CCC(=O)O)NC(=O)CSCC(=O)NCCN1C(=O)NC(C)(C)C1=O)[C@@H](C)O)[C@@H](C)O)[C@@H](C)CC)C(C)C)C(N)=O)C(=O)O` [Compound 87], the maximal response (Emax) in test [1] (Table 3) came to 62%; in test [1] (Table 3A) it was 62%; in test [2] (Table 3), 89%; in test [2] (Table 3A), 89%. Further, the EC50 in test [1] (setting [3]), in test [1] (setting [4]), in test [2] (setting [5]) and in test [2] (setting [6]) was 1 to 10 nM each time.
Turning to `CCCCCCCCCCCCCCCC(=O)N[C@@H](CCC(=O)NCCCC[C@H](NC(=O)[C@H](CO)NC(=O)[C@@H]1CCCN1C(=O)[C@@H]1CCCN1C(=O)[C@@H]1CCCN1C(=O)[C@H](C)NC(=O)CNC(=O)[C@H](CO)NC(=O)[C@H](CO)NC(=O)[C@@H]1CCCN1C(=O)CNC(=O)CNC(=O)[C@H](C)NC(=O)[C@H](CC(C)C)NC(=O)[C@H](CC(C)C)NC(=O)[C@H](Cc1c[nH]c2ccccc12)NC(=O)[C@H](CC(N)=O)NC(=O)[C@@H](NC(=O)[C@H](Cc1ccccc1)NC(=O)[C@H](CCC(=O)O)NC(=O)C(C)(C)NC(=O)[C@H](C)NC(=O)[C@H](C)NC(=O)[C@H](CCC(N)=O)NC(=O)[C@H](CCCCN)NC(=O)[C@H](CC(=O)O)NC(=O)[C@H](CC(C)C)NC(=O)[C@H](Cc1ccc(O)cc1)NC(=O)[C@@H](NC(=O)[C@H](CO)NC(=O)[C@H](Cc1ccc(O)cc1)NC(=O)[C@H](CC(=O)O)NC(=O)[C@H](CO)NC(=O)[C@@H](NC(=O)[C@H](Cc1ccccc1)NC(=O)[C@@H](NC(=O)CNC(=O)[C@H](CCC(=O)O)NC(=O)CSCC(=O)NCCN1C(=O)[C@H](C)C[C@H](C)C1=O)[C@@H](C)O)[C@@H](C)O)[C@@H](C)CC)C(C)C)C(N)=O)C(=O)O` [Compound 88], the EC50 was in the range of 1 to 10 nM in test [1] (EC50 GIP-R/nM, Table 3); 1 to 10 nM in test [1] (EC50 GIP-R/nM, Table 3A); 1 to 10 nM in test [2] (EC50 GLP-1R/nM, Table 3); 1 to 10 nM in test [2] (EC50 GLP-1R/nM, Table 3A). Also, the maximal response (Emax) worked out at 102% in test [1] (Table 3), 102% in test [1] (Table 3A), 108% in test [2] (Table 3) and 108% in test [2] (Table 3A).

Usually Emax stands for the size of the effect at its maximum, as opposed to the concentration needed.
